Data taken from patent US7579356B2, “Thia-tetraazaacenaphthylene kinase inhibitors” (Janssen Pharmaceutica NV, priority 2005, dated 2009).
pIC50: −log10 of the molar value. Where “and” joins values, the source holds several entries; their conditions need not be identical. Identical values can stand only once.

Columns and labels:
[1] = system: HeLa cervical adenocarcinoma; test: Cell Proliferation Inhibition Assay, Hela (C14 method); format: cell-based; conditions: Homo sapiens, Table 7
Description: Cell Proliferation Inhibition Assay
The ability of a test compound to inhibit unregulated cell proliferation may be determined by measuring incorporation of ^14C-labelled thymidine into newly synthesized DNA within cell lines derived from carcinomas originating from several tissues. Accordingly, the effect of a test compound on proliferation of cells with a variety of phenotypes may be determined.
Carcinoma cell lines used include the HeLa cervical adenocarcinoma from the American Type Culture Collection (ATCC Cat. #CCL2), A375 malignant melanoma (ATCC Cat. #CRL-1619), HCT-116 colon carcinoma (ATCC Cat. #CCL-247), SKBR3 breast carcinoma (ATCC Cat. #HTB-30) and BT474 breast carcinoma (ATCC Cat. #HTB-20).
The carcinoma cells were trypsinized and counted. The cells (3000-8000 count) were added to each well of a 96-well CytoStar tissue culture treated scintillating microplate (Amersham #RPNQ0160) in complete medium (100 μL) and the plate was then incubated in complete medium for 24 hrs at 37° C. in an inert atmosphere containing 5% CO2.
Test compound (1 μL) in 100% DMSO was added to the plate test-wells with DMSO only added to control-wells. The plate was incubated in complete medium for a second 24 hr period at 37° C. in an atmosphere containing 5% CO2.
An aliquot of a solution of Methyl ^14C-thymidine (56 mC/mmol) (NEN #NEC568 or AMersham #CFA532) and complete medium (20 uL to provide 0.2 μCl/well) was then added to each well and the plate was incubated for a third 24 hr period at 37° C. in an atmosphere containing 5% CO2.
The plate contents were then discarded, the plate washed twice with PBS (200 μL) and then PBS (200 μL) was added to each well. The plate was sealed and the degree of methyl ^14C-thymidine incorporation was quantified on a Packard Top Count.
Cell proliferation of the Hela cell line was measured using the ATP-Lite method as described in the ATP Lite Kit (Perkin-Elmer Kit Number 6106941) or the C^14 method as described above. Cell proliferation of the other cell lines was measured using the C^14 method.

[2] = target: T1, c-Src kinase (human) (Homo sapiens, UniProt P12931); test: c-Src Kinase Assay; format: biochemical; conditions: for pIC50: read-out: c-Src IC50 (in parentheses); for inhibition at 2 µM / c-Src % Inhibition: test concentration of 2 μM, multiple values are separate assay results; for c-Src % Inhibition: 2 µM
T1 construct: purchased Upstate Biotechnology, Lake Placid, N.Y
Procedure, shortened: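 Inhibition was read as 33P incorporation, counted on P30 filtermats, after a 40 min, 30° C reaction. Human c-Src acted on 100 μM Cdc2 peptide with 5 μM ATP (final), pH 7.0 MOPS/MgCl2. Values are percent inhibition at 2 μM compound, or IC50 where determined.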

T1 sequence (P12931 whole entry): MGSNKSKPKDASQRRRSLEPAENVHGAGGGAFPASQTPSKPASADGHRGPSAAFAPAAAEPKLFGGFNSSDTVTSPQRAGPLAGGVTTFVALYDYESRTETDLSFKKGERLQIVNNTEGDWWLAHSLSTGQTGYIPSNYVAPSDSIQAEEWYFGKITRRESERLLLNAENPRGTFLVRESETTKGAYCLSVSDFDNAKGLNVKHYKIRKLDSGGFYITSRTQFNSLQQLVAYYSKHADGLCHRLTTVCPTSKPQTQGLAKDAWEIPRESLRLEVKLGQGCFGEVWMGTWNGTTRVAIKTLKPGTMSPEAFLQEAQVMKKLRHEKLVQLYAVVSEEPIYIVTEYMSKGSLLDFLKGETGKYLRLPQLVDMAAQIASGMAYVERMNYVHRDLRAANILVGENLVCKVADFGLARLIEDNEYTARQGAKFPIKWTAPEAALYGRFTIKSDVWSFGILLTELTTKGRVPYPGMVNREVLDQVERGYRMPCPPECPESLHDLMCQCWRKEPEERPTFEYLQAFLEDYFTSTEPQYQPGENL

pIC50 [1] | pIC50 [2] | inhibition at 2 µM [2] [%] | c-Src % Inhibition [2] | Compound
≤ 5.00 | < 4.70 |  |  | O=C(Nc1ccc(CN2CCOCC2)cc1)c1sc2ncnc3c2c1NC(=O)N3c1cccc(Br)c1 [Cpd 36, 5-(3-bromo-phenyl)-4-oxo-4,5-dihydro-3H-1-thia-3,5,6,8-tetraaza-acenaphthylene-2-carboxylic acid (4-morpholin-4-ylmethyl-phenyl)-amide]
≤ 4.00 |  | 7 |  | O=C(O)c1sc2ncnc3c2c1NC(=O)N3c1ccc(OCc2ccccn2)c(Cl)c1 [Cpd 38, 5-[3-chloro-4-(pyridin-2-ylmethoxy)-phenyl]-4-oxo-4,5-dihydro-3H-1-thia-3,5,6,8-tetraaza-acenaphthylene-2-carboxylic acid]
 | 5.38 | 53 |  | COc1cc(N2C(=O)Nc3c(C(=O)Nc4ccc(CN5CCCC5)cc4)sc4ncnc2c34)c(Cl)cc1Cl [Cpd 43, 5-(2,4-dichloro-5-methoxy-phenyl)-4-oxo-4,5-dihydro-3H-1-thia-3,5,6,8-tetraaza-acenaphthylene-2-carboxylic acid (4-pyrrolidin-1-ylmethyl-phenyl)-amide]
≤ 5.00 |  | 7 |  | COc1ccc(NC(=O)c2sc3ncnc4c3c2NC(=O)N4c2ccc(OCc3ccccn3)c(Cl)c2)cc1OC [Cpd 48, 5-[3-chloro-4-(pyridin-2-ylmethoxy)-phenyl]-4-oxo-4,5-dihydro-3H-1-thia-3,5,6,8-tetraaza-acenaphthylene-2-carboxylic acid (3,4-dimethoxy-phenyl)-amide]
 | < 3.70 | 23 |  | COc1ccc(Cl)c(N2C(=O)Nc3c(C(=O)Nc4ccc(OC)c(OC)c4)sc4ncnc2c34)c1 [Cpd 49, 5-(2-chloro-5-methoxy-phenyl)-4-oxo-4,5-dihydro-3H-1-thia-3,5,6,8-tetraaza-acenaphthylene-2-carboxylic acid (3,4-dimethoxy-phenyl)-amide]
 | 5.09 | 20 |  | COc1ccc(Cl)c(N2C(=O)Nc3c(C(=O)Nc4ccc(OCCN5CCOCC5)c(OC)c4)sc4ncnc2c34)c1 [Cpd 50, 5-(2-chloro-5-methoxy-phenyl)-4-oxo-4,5-dihydro-3H-1-thia-3,5,6,8-tetraaza-acenaphthylene-2-carboxylic acid [3-methoxy-4-(2-morpholin-4-yl-ethoxy)-phenyl]-amide]
 | 5.18 | 33 |  | COc1ccc(Cl)c(N2C(=O)Nc3c(C(=O)Nc4ccc(CN5CCOCC5)cc4)sc4ncnc2c34)c1 [Cpd 51, 5-(2-chloro-5-methoxy-phenyl)-4-oxo-4,5-dihydro-3H-1-thia-3,5,6,8-tetraaza-acenaphthylene-2-carboxylic acid (4-morpholin-4-ylmethyl-phenyl)-amide]
≤ 4.00 |  | 1 |  | O=C(Nc1ccc(CN2CCOCC2)cc1)c1sc2ncnc3c2c1NC(=O)N3c1ccc(OCc2ccccn2)c(Cl)c1 [Cpd 52, 5-[3-chloro-4-(pyridin-2-ylmethoxy)-phenyl]-4-oxo-4,5-dihydro-3H-1-thia-3,5,6,8-tetraaza-acenaphthylene-2-carboxylic acid (4-morpholin-4-ylmethyl-phenyl)-amide]
 | 5.83 | 42 |  | COC(=O)c1sc2ncnc3c2c1NC(=O)N3c1c(Cl)ccc2c1OCO2 [Cpd 54, 5-(5-chloro-benzo[1,3]dioxol-4-yl)-4-oxo-4,5-dihydro-3H-1-thia-3,5,6,8-tetraaza-acenaphthylene-2-carboxylic acid methyl ester]
 | 5.10 | 38 |  | COc1cc(N2C(=O)Nc3c(C(=O)Nc4ccc(CN5CCN(C)CC5)cc4)sc4ncnc2c34)c(Cl)cc1Cl [Cpd 60]
 | 7.12 | 83 |  | O=C(Nc1ccc(CN2CCOCC2)cc1)c1sc2ncnc3c2c1NC(=O)N3c1c(Cl)ccc2c1OCO2 [Cpd 62, 5-(5-chloro-benzo[1,3]dioxol-4-yl)-4-oxo-4,5-dihydro-3H-1-thia-3,5,6,8-tetraaza-acenaphthylene-2-carboxylic acid (4-morpholin-4-ylmethyl-phenyl)-amide]
 |  | -14 |  | O=C(Nc1ccc(NCCCN2CCOCC2)nc1)c1sc2ncnc3c2c1NC(=O)N3c1cccc(Br)c1 [Cpd 64, 5-(3-bromo-phenyl)-4-oxo-4,5-dihydro-3H-1-thia-3,5,6,8-tetraaza-acenaphthylene-2-carboxylic acid [6-(3-morpholin-4-yl-propylamino)-pyridin-3-yl]-amide]
 |  | 44 |  | O=C(Nc1ccc(CN2CCCCC2)cc1)c1sc2ncnc3c2c1NC(=O)N3c1ccc(OCc2ccccn2)c(Cl)c1 [Cpd 89, 5-[3-chloro-4-(pyridin-2-ylmethoxy)-phenyl]-4-oxo-4,5-dihydro-3H-1-thia-3,5,6,8-tetraaza-acenaphthylene-2-carboxylic acid (4-piperidin-1-ylmethyl-phenyl)-amide]
 |  | 8 | 4% | CN1CCN(Cc2ccc(NC(=O)c3sc4ncnc5c4c3NC(=O)N5c3ccc(OCc4ccccn4)c(Cl)c3)cc2)CC1 [Cpd 90, 5-[3-chloro-4-(pyridin-2-ylmethoxy)-phenyl]-4-oxo-4,5-dihydro-3H-1-thia-3,5,6,8-tetraaza-acenaphthylene-2-carboxylic acid [4-(4-methyl-piperazin-1-ylmethyl)-phenyl]-amide]
 | < 3.70 |  |  | O=C(Nc1ccc(CN2CCCCC2)cc1)c1sc2ncnc3c2c1NC(=O)N3c1ccc(Oc2ccccc2)cc1 [Cpd 96, 4-oxo-5-(4-phenoxy-phenyl)-4,5-dihydro-3H-1-thia-3,5,6,8-tetraaza-acenaphthylene-2-carboxylic acid (4-piperidin-1-ylmethyl-phenyl)-amide]
 | ~5.70 |  |  | O=C(Nc1ccc(CN2CCOCC2)cc1)c1sc2ncnc3c2c1NC(=O)N3c1ccc(Oc2ccccc2)cc1 [Cpd 97, 4-oxo-5-(4-phenoxy-phenyl)-4,5-dihydro-3H-1-thia-3,5,6,8-tetraaza-acenaphthylene-2-carboxylic acid (4-morpholin-4-ylmethyl-phenyl)-amide]
 | 6.23 |  | 63% and 41% | CN1CCN(Cc2ccc(NC(=O)c3sc4ncnc5c4c3NC(=O)N5c3ccc(Oc4ccccc4)cc3)cc2)CC1 [Cpd 98, 4-oxo-5-(4-phenoxy-phenyl)-4,5-dihydro-3H-1-thia-3,5,6,8-tetraaza-acenaphthylene-2-carboxylic acid [4-(4-methyl-piperazin-1-ylmethyl)-phenyl]-amide]
 | < 3.70 |  |  | COc1cc(NC(=O)c2sc3ncnc4c3c2NC(=O)N4c2ccc(Oc3ccccc3)cc2)ccc1OCCN1CCCCC1 [Cpd 100, 4-oxo-5-(4-phenoxy-phenyl)-4,5-dihydro-3H-1-thia-3,5,6,8-tetraaza-acenaphthylene-2-carboxylic acid [3-methoxy-4-(2-piperidin-1-yl-ethoxy)-phenyl]-amide]
≤ 4.00 |  |  |  | CCOC(=O)c1sc2ncnc3c2c1NC(=O)N3c1ccc(Oc2ccc(F)cc2)cc1 [Cpd 101, 5-[4-(4-fluoro-phenoxy)-phenyl]-4-oxo-4,5-dihydro-3H-1-thia-3,5,6,8-tetraaza-acenaphthylene-2-carboxylic acid ethyl ester]
 | 5.74 | 55 | 60% | O=C(Nc1ccc(CN2CCOCC2)cc1)c1sc2ncnc3c2c1NC(=O)N3c1c(Cl)cccc1Cl [Cpd 104, 5-(2,6-dichloro-phenyl)-4-oxo-4,5-dihydro-3H-1-thia-3,5,6,8-tetraaza-acenaphthylene-2-carboxylic acid (4-morpholin-4-ylmethyl-phenyl)-amide]
 |  | 68 | 54% | O=C(Nc1ccc(CN2CCOCC2)cc1)c1sc2ncnc3c2c1NC(=O)N3c1ccc(Oc2ccccc2)c(F)c1 [Cpd 113, 5-(3-fluoro-4-phenoxy-phenyl)-4-oxo-4,5-dihydro-3H-1-thia-3,5,6,8-tetraaza-acenaphthylene-2-carboxylic acid (4-morpholin-4-ylmethyl-phenyl)-amide]
 | 6.26 | 77 |  | O=C(Nc1ccc(CN2CCOCC2)cc1)c1sc2ncnc3c2c1NC(=O)N3c1ccc(N2CCOCC2)cc1 [Cpd 123, 5-(4-morpholin-4-yl-phenyl)-4-oxo-4,5-dihydro-3H-1-thia-3,5,6,8-tetraaza-acenaphthylene-2-carboxylic acid (4-morpholin-4-ylmethyl-phenyl)-amide]
